# Biological target: T1, Human TRPC6 (Homo sapiens, UniProt Q9Y210)
# T1 construct: expressed in transfected cells
# T1 sequence (Q9Y210 1-931): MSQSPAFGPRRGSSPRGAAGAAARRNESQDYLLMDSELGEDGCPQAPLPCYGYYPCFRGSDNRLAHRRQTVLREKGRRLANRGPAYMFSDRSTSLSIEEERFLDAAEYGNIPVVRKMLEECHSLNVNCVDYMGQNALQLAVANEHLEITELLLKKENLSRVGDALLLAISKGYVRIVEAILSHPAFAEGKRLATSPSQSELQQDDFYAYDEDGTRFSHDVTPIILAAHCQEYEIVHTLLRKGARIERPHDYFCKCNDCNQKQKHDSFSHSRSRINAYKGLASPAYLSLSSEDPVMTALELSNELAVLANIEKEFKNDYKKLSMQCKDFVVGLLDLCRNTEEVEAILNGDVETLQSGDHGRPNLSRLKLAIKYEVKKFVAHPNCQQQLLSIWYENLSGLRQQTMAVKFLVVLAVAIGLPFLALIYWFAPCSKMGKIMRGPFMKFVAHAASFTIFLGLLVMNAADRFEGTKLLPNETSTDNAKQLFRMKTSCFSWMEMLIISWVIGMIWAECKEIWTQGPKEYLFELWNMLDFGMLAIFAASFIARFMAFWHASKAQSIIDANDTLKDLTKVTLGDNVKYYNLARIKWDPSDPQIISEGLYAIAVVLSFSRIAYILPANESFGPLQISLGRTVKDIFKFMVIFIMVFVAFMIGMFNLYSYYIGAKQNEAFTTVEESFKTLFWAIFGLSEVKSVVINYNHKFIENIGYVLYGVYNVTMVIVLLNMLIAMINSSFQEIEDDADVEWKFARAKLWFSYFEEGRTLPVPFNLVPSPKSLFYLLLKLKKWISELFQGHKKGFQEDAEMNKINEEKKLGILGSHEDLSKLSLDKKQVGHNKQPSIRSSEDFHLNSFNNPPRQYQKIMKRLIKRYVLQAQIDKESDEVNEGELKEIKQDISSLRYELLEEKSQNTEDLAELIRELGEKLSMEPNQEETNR
# Assay: Evaluation of TRPC6 channel inhibitory activity (1), FLIPR Calcium 5 Assay Kit, OAG stimulation (Compound Nos. 1-1293)
# Assay type: cell-based
# Conditions: Human TRPC6 stably-expressing cells, OAG 30 μM, FLIPR Calcium 5 Assay Kit; read-out: Inhibitory activity (pIC50 class) (converted)
# Outline: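 Calcium influx read by FLIPR fluorescence in cells stably expressing human TRPC6, dye-loaded 30 min. Compounds preincubated 20 min, then OAG stimulation at 30 μM final. Inhibition fitted by four-parameter logistic regression to give pIC50, reported as +/++/+++ categories.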
row,SMILES,IC50 [µM]
1,"CCCc1cc(Oc2cc(C#N)ccc2-c2ncc(CN)cn2)n(C)n1 [compound 363, 4-[5-(aminomethyl)pyrimidin-2-yl]-3-(2-methyl-5-propylpyrazol-3-yl)oxybenzonitrile]",< 0.01
2,"CC(C)c1cc(Oc2cc(C#N)ccc2-c2ncc(CN)cn2)n(C)n1 [compound 364, 4-[5-(aminomethyl)pyrimidin-2-yl]-3-(2-methyl-5-propan-2-ylpyrazol-3-yl)oxybenzonitrile]",< 0.01
3,"Cn1nc(C(C)(C)C)cc1Oc1cc(C#N)ccc1-c1ncc(CCN)cn1 [compound 367, 4-[5-(2-aminoethyl)pyrimidin-2-yl]-3-(5-tert-butyl-2-methylpyrazol-3-yl)oxybenzonitrile]",< 0.01
4,"CC(C)(C)n1nc(C2CC2)cc1Oc1cc(C#N)ccc1-c1ccc(C(O)CN)cn1 (stereo not shown) [compound 368, 4-[5-(2-amino-1-hydroxyethyl)pyridin-2-yl]-3-(2-tert-butyl-5-cyclopropylpyrazol-3-yl)oxybenzonitrile]",0.01 to 1
5,"CC(C)(C)n1nc(C2CC2)cc1Oc1cc(C#N)ccc1-c1ncc(CCN)cn1 [compound 369, 4-[5-(2-aminoethyl)pyrimidin-2-yl]-3-(2-tert-butyl-5-cyclopropylpyrazol-3-yl)oxybenzonitrile]",0.01 to 1
6,"N#Cc1ccc(-c2ccc(C(O)CN)cn2)c(Oc2cc(C3CC3)nn2CC(F)(F)F)c1 (stereo not shown) [compound 370, 4-[5-(2-amino-1-hydroxyethyl)pyridin-2-yl]-3-[5-cyclopropyl-2-(2,2,2-trifluoroethyl)pyrazol-3-yl]oxybenzonitrile]",< 0.01
7,"Cc1cc(Oc2cc(C#N)ccc2-c2ncc(CCN)cn2)cc(-c2ccccn2)n1 [compound 371, 4-[5-(2-aminoethyl)pyrimidin-2-yl]-3-(2-methyl-6-pyridin-2-ylpyridin-4-yl)oxybenzonitrile]",< 0.01
8,"Cn1nc(C2CC2)cc1Oc1cc(C#N)ccc1-c1ncc([C@@H](O)CN)cn1 [compound 372, 4-[5-[(1R)-2-amino-1-hydroxyethyl]pyrimidin-2-yl]-3-(5-cyclopropyl-2-methylpyrazol-3-yl)oxybenzonitrile]",< 0.01
9,"Cn1nc(C2CC2)cc1Oc1cc(C#N)ccc1-c1ncc([C@H](O)CN)cn1 [compound 373, 4-[5-[(1S)-2-amino-1-hydroxyethyl]pyrimidin-2-yl]-3-(5 cyclopropyl-2-methylpyrazol-3-yl)oxybenzonitrile]",< 0.01
10,"Cn1nc(C(F)(F)C(F)(F)F)cc1Oc1cc(C#N)ccc1-c1ncc(CCN)cn1 [compound 376, 4-[5-(2-aminoethyl)pyrimidin-2-yl]-3-[2-methyl-5-(1,1,2,2,2-pentafluoroethyl)pyrazol-3-yl]oxybenzonitrile]",< 0.01
11,"N#Cc1ccc(-c2ncc(CCN)cn2)c(Oc2cc(C3CC3)nn2CC(F)(F)F)c1 [compound 379, 4-[5-(2-aminoethyl)pyrimidin-2-yl]-3-[5-cyclopropyl-2-(2,2,2-trifluoroethyl)pyrazol-3-yl]oxybenzonitrile]",< 0.01
12,"CC(C)n1nc(C2CC2)cc1Oc1cc(C#N)ccc1-c1ncc(CCN)cn1 [compound 380, 4-[5-(2-aminoethyl)pyrimidin-2-yl]-3-(5-cyclopropyl-2-propan-2-ylpyrazol-3-yl)oxybenzonitrile]",0.01 to 1
13,"CC(C)n1nc(-c2ccccc2)cc1Oc1cc(C#N)ccc1-c1ncc(CCN)cn1 [compound 381, 4-[5-(2-aminoethyl)pyrimidin-2-yl]-3-(5-phenyl-2-propan-2-ylpyrazol-3-yl)oxybenzonitrile]",< 0.01
14,"Cn1nc(C(F)F)cc1Oc1cc(C#N)ccc1-c1ncc(CCN)cn1 [compound 384, 4-[5-(2-aminoethyl)pyrimidin-2-yl]-3-[5-(difluoromethyl)-2-methylpyrazol-3-yl]oxybenzonitrile]",< 0.01
15,"Cn1nc(C2CC2)cc1Oc1cc(C#N)ccc1-c1ncc(OCCN)cn1 [compound 385, 4-[5-(2-aminoethoxy)pyrimidin-2-yl]-3-(5-cyclopropyl-2-methylpyrazol-3-yl)oxybenzonitrile]",0.01 to 1
16,"CCc1cc(Oc2cc(C#N)ccc2-c2ncc(OCCN)cn2)n(C)n1 [compound 386, 4-[5-(2-aminoethoxy)pyrimidin-2-yl]-3-(5-ethyl-2-methylpyrazol-3-yl)oxybenzonitrile]",0.01 to 1
17,"Cc1cc(Oc2cc(C#N)ccc2-c2ncc(OCCN)cn2)cc(N2CCOCC2)n1 [compound 387, 4-[5-(2-aminoethoxy)pyrimidin-2-yl]-3-(2-methyl-6-morpholin-4-ylpyridin-4-yl)oxybenzonitrile]",0.01 to 1
18,"Cc1cc(Oc2cc(C#N)ccc2-c2cnc(CCN)cn2)cc(N2CCOCC2)n1 [compound 388, 4-[5-(2-aminoethyl)pyrazin-2-yl]-3-(2-methyl-6-morpholin-4-ylpyridin-4-yl)oxybenzonitrile]",< 0.01
19,"Cn1nc(C2CCOCC2)cc1Oc1cc(C#N)ccc1-c1cnc(CCN)cn1 [compound 389, 4-[5-(2-aminoethyl)pyrazin-2-yl]-3-[2-methyl-5-(oxan-4-yl)pyrazol-3-yl]oxybenzonitrile]",0.01 to 1
20,"Cn1nc(-c2nccs2)cc1Oc1cc(C#N)ccc1-c1ncc(CCN)cn1 [compound 391, 4-[5-(2-aminoethyl)pyrimidin-2-yl]-3-[2-methyl-5-(1,3-thiazol-2-yl)pyrazol-3-yl]oxybenzonitrile]",< 0.01
21,"Cn1nc(C2CCCC2)cc1Oc1cc(C#N)ccc1-c1ncc(CCN)cn1 [compound 393, 4-[5-(2-aminoethyl)pyrimidin-2-yl]-3-(5-cyclopentyl-2-methylpyrazol-3-yl)oxybenzonitrile]",< 0.01

# Next, values leading:
row,IC50 [µM],SMILES
1,< 0.01,"Cn1nc(-c2ccccc2)cc1Oc1cc(C#N)ccc1-c1ccc([C@@H](O)CN)cn1 [compound 365, 4-[5-[(1R)-2-amino-1-hydroxyethyl]pyridin-2-yl]-3-(2-methyl-5-phenylpyrazol-3-yl)oxybenzonitrile]"
2,< 0.01,"Cn1nc(-c2ccccc2)cc1Oc1cc(C#N)ccc1-c1ccc([C@H](O)CN)cn1 [compound 366, 4-[5-[(1S)-2-amino-1-hydroxyethyl]pyridin-2-yl]-3-(2-methyl-5-phenylpyrazol-3-yl)oxybenzonitrile]"
3,< 0.01,"Cn1nc(C2CC2)cc1Oc1cc(C#N)ccc1-c1ccc([C@@H](O)CN)cn1 [compound 374, 4-[5-[(1R)-2-amino-1-hydroxyethyl]pyridin-2-yl]-3-(5-cyclopropyl-2-methylpyrazol-3-yl)oxybenzonitrile]"
4,< 0.01,"Cn1nc(C2CC2)cc1Oc1cc(C#N)ccc1-c1ccc([C@H](O)CN)cn1 [compound 375, 4-[5-[(1S)-2-amino-1-hydroxyethyl]pyridin-2-yl]-3-(5-cyclopropyl-2-methylpyrazol-3-yl)oxybenzonitrile]"
5,0.01 to 1,"Cn1nc(-c2ccc(Cl)cc2)cc1Oc1cc(C#N)ccc1-c1ccc([C@@H](O)CN)cn1 [compound 377, 4-[5-[(1R)-2-amino-1-hydroxyethyl]pyridin-2-yl]-3-[5-(4-chlorophenyl)-2-methylpyrazol-3-yl]oxybenzonitrile]"
6,< 0.01,"Cc1ccccc1-c1cc(Oc2cc(C#N)ccc2-c2ccc([C@@H](O)CN)cn2)n(C)n1 [compound 378, 4-[5-[(1R)-2-amino-1-hydroxyethyl]pyridin-2-yl]-3-[2-methyl-5-(2-methylphenyl)pyrazol-3-yl]oxybenzonitrile]"
7,< 0.01,"CC(C)n1nc(C2CC2)cc1Oc1cc(C#N)ccc1-c1ccc([C@@H](O)CN)cn1 [compound 382, 4-[5-[(1R)-2-amino-1-hydroxyethyl]pyridin-2-yl]-3-(5-cyclopropyl-2-propan-2-ylpyrazol-3-yl)oxybenzonitrile]"
8,< 0.01,"CC(C)n1nc(-c2ccccc2)cc1Oc1cc(C#N)ccc1-c1ccc([C@@H](O)CN)cn1 [compound 383, 4-[5-[(1R)-2-amino-1-hydroxyethyl]pyridin-2-yl]-3-(5-phenyl-2-propan-2-ylpyrazol-3-yl)oxybenzonitrile]"
9,< 0.01,"Cn1nc(-c2nccs2)cc1Oc1cc(C#N)ccc1-c1ccc(CCN)cn1 [compound 390, 4-[5-(2-aminoethyl)pyridin-2-yl]-3-[2-methyl-5-(1,3-thiazol-2-yl)pyrazol-3-yl]oxybenzonitrile]"
10,< 0.01,"Cn1nc(C2CCCC2)cc1Oc1cc(C#N)ccc1-c1ccc([C@H](O)CN)cn1 [compound 392, 4-[5-[(1S)-2-amino-1-hydroxyethyl]pyridin-2-yl]-3-(5-cyclopentyl-2-methylpyrazol-3-yl)oxybenzonitrile]"

# From US20230167073A1 (Teijin Pharma Limited, priority 2020, published 2023)
